The text below walks through data of patent US20160340322A1 (NISSAN CHEMICAL INDUSTRIES, LTD., priority 2013, published 2016).

T1 sequence (O95180 whole entry): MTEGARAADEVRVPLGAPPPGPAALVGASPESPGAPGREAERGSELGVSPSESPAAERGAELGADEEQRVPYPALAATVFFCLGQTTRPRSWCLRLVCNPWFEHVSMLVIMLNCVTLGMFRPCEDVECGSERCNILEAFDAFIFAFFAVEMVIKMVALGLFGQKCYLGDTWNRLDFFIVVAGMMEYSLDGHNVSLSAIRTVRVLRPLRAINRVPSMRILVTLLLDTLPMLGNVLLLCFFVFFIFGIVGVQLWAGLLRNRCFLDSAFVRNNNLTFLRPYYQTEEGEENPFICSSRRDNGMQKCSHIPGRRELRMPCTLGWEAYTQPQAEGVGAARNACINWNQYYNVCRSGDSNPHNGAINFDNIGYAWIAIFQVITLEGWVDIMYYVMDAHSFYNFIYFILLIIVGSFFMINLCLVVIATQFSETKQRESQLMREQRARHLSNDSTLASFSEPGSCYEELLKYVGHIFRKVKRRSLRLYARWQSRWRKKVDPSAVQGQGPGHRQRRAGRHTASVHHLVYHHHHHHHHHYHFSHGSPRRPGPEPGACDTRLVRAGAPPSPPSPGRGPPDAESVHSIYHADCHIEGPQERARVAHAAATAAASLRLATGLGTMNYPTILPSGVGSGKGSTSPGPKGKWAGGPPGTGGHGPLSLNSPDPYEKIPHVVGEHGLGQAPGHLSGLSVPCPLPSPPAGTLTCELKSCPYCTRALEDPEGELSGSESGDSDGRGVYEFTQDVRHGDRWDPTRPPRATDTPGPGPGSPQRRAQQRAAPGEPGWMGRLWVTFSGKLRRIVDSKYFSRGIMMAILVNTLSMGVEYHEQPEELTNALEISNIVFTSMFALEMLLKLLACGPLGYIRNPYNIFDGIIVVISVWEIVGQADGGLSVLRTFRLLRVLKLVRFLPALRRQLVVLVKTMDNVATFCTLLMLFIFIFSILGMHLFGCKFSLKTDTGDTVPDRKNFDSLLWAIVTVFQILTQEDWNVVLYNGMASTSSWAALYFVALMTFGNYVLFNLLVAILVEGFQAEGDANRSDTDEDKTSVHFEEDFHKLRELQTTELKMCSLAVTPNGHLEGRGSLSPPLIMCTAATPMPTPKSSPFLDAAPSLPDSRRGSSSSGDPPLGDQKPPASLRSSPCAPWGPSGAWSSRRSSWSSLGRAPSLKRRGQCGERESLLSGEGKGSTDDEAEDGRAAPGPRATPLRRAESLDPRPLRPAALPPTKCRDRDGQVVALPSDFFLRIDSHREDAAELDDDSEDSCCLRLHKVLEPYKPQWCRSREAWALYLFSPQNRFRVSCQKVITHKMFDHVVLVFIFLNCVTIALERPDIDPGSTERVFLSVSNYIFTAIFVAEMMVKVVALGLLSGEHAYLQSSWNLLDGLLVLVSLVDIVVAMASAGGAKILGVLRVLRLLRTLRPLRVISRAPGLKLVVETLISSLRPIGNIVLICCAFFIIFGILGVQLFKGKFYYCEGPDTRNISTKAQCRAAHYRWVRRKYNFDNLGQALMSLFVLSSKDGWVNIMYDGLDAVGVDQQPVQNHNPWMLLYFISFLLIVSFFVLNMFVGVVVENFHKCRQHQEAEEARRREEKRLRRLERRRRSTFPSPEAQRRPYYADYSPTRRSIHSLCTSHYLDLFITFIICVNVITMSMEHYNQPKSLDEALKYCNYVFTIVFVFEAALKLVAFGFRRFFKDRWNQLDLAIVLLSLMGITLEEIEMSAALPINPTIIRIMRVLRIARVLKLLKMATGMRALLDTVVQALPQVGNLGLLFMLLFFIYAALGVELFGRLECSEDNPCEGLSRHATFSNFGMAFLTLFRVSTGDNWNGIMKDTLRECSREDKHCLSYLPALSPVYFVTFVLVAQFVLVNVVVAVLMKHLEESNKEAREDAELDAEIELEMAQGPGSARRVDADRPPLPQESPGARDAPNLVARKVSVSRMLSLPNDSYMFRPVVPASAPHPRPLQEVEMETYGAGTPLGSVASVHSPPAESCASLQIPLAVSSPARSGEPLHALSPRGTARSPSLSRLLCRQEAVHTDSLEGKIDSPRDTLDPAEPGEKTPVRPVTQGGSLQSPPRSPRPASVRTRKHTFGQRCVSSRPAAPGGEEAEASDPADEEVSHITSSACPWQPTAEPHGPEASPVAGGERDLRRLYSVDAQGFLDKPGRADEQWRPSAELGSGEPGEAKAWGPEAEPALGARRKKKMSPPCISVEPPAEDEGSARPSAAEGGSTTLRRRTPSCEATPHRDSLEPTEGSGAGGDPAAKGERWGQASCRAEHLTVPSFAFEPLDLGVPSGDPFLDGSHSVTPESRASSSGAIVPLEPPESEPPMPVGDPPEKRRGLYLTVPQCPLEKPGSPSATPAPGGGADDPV

The test has as its target T1, Human T-type calcium channel (Cav 3.2) (Homo sapiens, UniProt O95180).
T1 construct: Edward Perez-Reyes, University of Virginia, USA; host or cells: HEK293
The test is described as follows: Calcium Influx Inhibition Assay. The test is classed as cell-based. As to conditions: human T-type calcium channel (Cav 3.2) expressing HEK293 cells; FLIPR Calcium 4 fluorescence; 30 min compound incubation; read-out: T-type calcium channel inhibition concentration IC50. The method, then: 1. Calcium Influx Inhibition Assay Human T-type calcium channel (Cav 3.2) expressing HEK293 cells were introduced from Prof. Edward Perez-Reyes, University of Virginia, USA. The calcium-sensitive fluorescent dye used was FLIPR Calcium 4 Assay Kit (Molecular Devices). To a black 96-well plate with a clear bottom coated with type I collagen, the human T-type calcium channel (Cav 3.2) expressing HEK293 cells were seeded and cultured overnight, and the culture medium was removed. A solution of the calcium-sensitive fluorescent dye was added, and the resultant plate was incubated at 37° C. in an atmosphere of 5% carbon dioxide for 30 minutes. To the plate, a diluted solution of a compound was added, and subjected to further incubation at 37° C. in an atmosphere of 5% carbon dioxide for 30 minutes. While fluorescence was continuously analyzed from the bottom with a FlexStation 3 (Molecular Devices), a calcium solution was added. […] Based on the rise value in the fluorescence from the base line, the inhibition percentage was calculated. The logarithms of compound concentrations were plotted with respect to the inhibition activities to obtain an IC50 value.
On to `Cc1cccc(C2=CCN(c3cnn(Cc4ccc(C(F)(F)F)s4)c(=O)n3)C[C@@H]2O)n1` [Synthesis Example 31, (R)-5-[5′-Hydroxy-6-methyl-5′,6′-dihydro-(2,4′-bipyridin)-1′(2′H)-yl]-2-{[5-(trifluoromethyl)thiophen-2-yl]methyl}-1,2,4-triazin-3 (2H)-one], for which the IC50 came to 120 nM.
The value for `COc1cccc(C2=CCN(c3cnn(Cc4ccc(C(F)(F)F)s4)c(=O)n3)C[C@@H]2O)n1` [Synthesis Example 32] was 48 nM; that for `Cc1nc(N2CCN(c3cnn(Cc4ccc(C(F)(F)F)s4)c(=O)n3)CC2)ccc1F` [Synthesis Example 33] was 32 nM; that for `O=c1nc(N2CCN(c3ccc(F)c(Cl)c3)CC2)cnn1Cc1ccc(C(F)(F)F)s1` [Synthesis Example 34] was 61 nM.
For `O=c1nc(N2CC=C(c3ccc(F)cc3)C(F)C2)cnn1Cc1ccc(C(F)(F)F)s1` (stereo not shown) [Synthesis Example 35, 5-[5-Fluoro-4-(4-fluorophenyl)-5,6-dihydropyridin-1(2H)-yl]-2-{[5-(trifluoromethyl)thiophen-2-yl]methyl}-1,2,4-triazin-3(2H)-one] the value was 31 nM; for `NC1CN(c2cnn(Cc3ccc(C(F)(F)F)s3)c(=O)n2)CC=C1c1ccc(F)cc1` (stereo not shown) [Synthesis Example 36, 5-[5-Amino-4-(4-fluorophenyl)-5,6-dihydropyridin-1(2H)-yl]-2-{[5-(trifluoromethyl)thiophen-2-yl]methyl}-1,2,4-triazin-3(2H)-one], 3.4 nM; for `Cc1ccc(C2=CCN(c3cnn(Cc4ccc(C(F)(F)F)s4)c(=O)n3)C[C@@H]2O)o1` [Synthesis Example 37, (R)-5-[5-Hydroxy-4-(5-methylfuran-2-yl)-5,6-dihydropyridin-(2H)-yl]-2-{[5-(trifluoromethyl)thiophen-2-yl]methyl}-1,2,4-triazin-3(2H)-one], 4.8 nM.
For `Cn1cc(C2=CCN(c3cnn(Cc4ccc(C(F)(F)F)s4)c(=O)n3)C[C@@H]2O)cn1` [Synthesis Example 38, (R)-5-[5-Hydroxy-4-(1-methyl-1H-pyrazol-4-yl)-5,6-dihydropyridin-1(2H)-yl]-{[5-(trifluoromethyl)thiophen-2-yl]methyl}-1,2,4-triazin-3(2H)-one] the value was 180 nM; for `Cn1ccc(C2=CCN(c3cnn(Cc4ccc(C(F)(F)F)s4)c(=O)n3)CC2)n1` [Synthesis Example 39, 5-[4-(1-Methyl-1H-pyrazol-3-yl)-5,6-dihydropyridin-1(2H)-yl]-2-{[5-(trifluoromethyl)thiophen-2-yl]methyl}-1,2,4-triazin-3(2H)-one], 1300 nM; for `Cc1cc(N2CCN(c3cnn(Cc4ccc(C(F)(F)F)s4)c(=O)n3)CC2)cs1` [Synthesis Example 40, 5-[4-(5-Methylthiophen-3-yl)piperazin-1-yl]-2-{[5-(trifluoromethyl)thiophen-2-yl]methyl}-1,2,4-triazin-3(2H)-one], 69 nM.
For `O=c1nc(N2CCN(c3ccc(Cl)cc3)CC2)cnn1Cc1ccc(C(F)(F)F)s1` [Synthesis Example 41, 5-[4-(4-Chlorophenyl)piperazin-1-yl]-2-{[5-(trifluoromethyl)thiophen-2-yl]methyl}-1,2,4-triazin-3(2H)-one], the IC50 stood at 29 nM.
The value for `COc1ccc2c(c1)CCN(c1cnn(Cc3ccc(C(F)(F)F)s3)c(=O)n1)C2C` (stereo not shown) [Synthesis Example 42, 5-[6-Methoxy-1-methyl-3,4-dihydroisoquinolin-2(1H)-yl]-2-{[5-(trifluoromethyl)thiophen-2-yl]methyl}-1,2,4-triazin-3(2H)-one] was 600 nM; that for `O=c1nc(N2CC=C(c3ccc(F)c(Cl)c3)[C@@H](O)C2)cnn1Cc1cnc(C(F)(F)F)s1` [Synthesis Example 43, (R)-5-[4-(3-Chloro-4-fluorophenyl)-5-hydroxy-5,6-dihydropyridin-1(2H)-yl]-2-{[2-(trifluoromethyl)thiazol-5-yl]methyl}-1,2,4-triazin-3(2H)-one] was 54 nM; that for `O=c1nc(N2CCc3cc(C(F)(F)F)ccc3C2)cnn1Cc1cnc(C(F)(F)F)s1` [Synthesis Example 44, 5-[6-(trifluoromethyl)-3,4-dihydroisoquinolin-2-(1H)-yl]-2-{[2-(trifluoromethyl)thiazol-5-yl]methyl}-1,2,4-triazin-3(2H)-one] was 570 nM.
The value for `Cc1ccc(C2=CCN(c3cnn(Cc4cnc(C(F)(F)F)s4)c(=O)n3)C[C@@H]2O)cc1F` [Synthesis Example 45, (R)-5-[4-(3-Fluoro-4-methylphenyl)-5-hydroxy-5,6-dihydropyridin-1(2H)-yl]-2-{[2-(trifluoromethyl)thiazol-5-yl]methyl}-1,2,4-triazin-3(2H)-one] was 130 nM; that for `O=c1nc(N2CC=C(c3ccc(F)cc3)[C@@H](O)C2)cnn1Cn1ccc(C(F)(F)F)n1` [Synthesis Example 46, (R)-5-[4-(4-Fluorophenyl)-5-hydroxy-5,6-dihydropyridin-(2H)-yl]-2-{[3-(trifluoromethyl)-1H-pyrazol-1-yl]methyl}-1,2,4-triazin-3(2H)-one] was 110 nM; that for `O=c1nc(N2CC=C(c3ccc(F)cc3)[C@@H](O)C2)cnn1Cn1cc(Cl)cn1` [Synthesis Example 47, (R)-2-[(4-Chloro-1H-pyrazol-1-yl)methyl]-5-[4-(4-fluorophenyl)-5-hydroxy-5,6-dihydropyridin-1(2H)-yl]-1,2,4-triazin-3(2H)-one] was 2600 nM.
For the molecule `CC(C)(C)c1ccc(Cn2ncc(N3CC=C(c4ccc(F)cc4)[C@@H](O)C3)nc2=O)s1` [Synthesis Example 48, (R)-2-{[5-(Tert-butyl)thiophen-2-yl]methyl}-5-[4-(4-fluorophenyl)-5-hydroxy-5,6-dihydropyridin-(2H)-yl]-1,2,4-triazin-3(2H)-one], the IC50 turned out to be 6.4 nM.
`O=c1nc(N2CC=C(c3ccc(F)cc3)[C@@H](O)C2)cnn1Cn1ccc(C(F)(F)C(F)(F)F)n1` [Synthesis Example 49, (R)-5-[4-(4-Fluorophenyl)-5-hydroxy-5,6-dihydropyridin-1(2H)-yl]-2-{[3-(perfluoroethyl)-1 H-pyrazol-1-yl]methyl}-1,2,4-triazin-3(2H)-one]: the IC50 was found to be 25 nM.
The value for `CC(C)(C)c1ncc(Cn2ncc(N3CC=C(c4ccc(F)cc4)[C@@H](O)C3)nc2=O)o1` [Synthesis Example 50, (R)-2-{[2-(Tert-butyl)oxazol-5-yl]methyl}-5-[4-(4-fluorophenyl)-5-hydroxy-5,6-dihydropyridin-1(2H)-yl]-1,2,4-triazin-3(2H)-one] was 62 nM.
Consider `O=c1nc(N2CC=C(c3ccc(F)cc3)[C@@H](O)C2)cnn1Cc1ccc(OS(=O)(=O)C(F)(F)F)nc1` [Synthesis Example 51, (R)-5-({5-[4-(4-Fluorophenyl)-5-hydroxy-5,6-dihydropyridin-1(2H)-yl]-3-oxo-1,2,4-triazin-2(3H)-yl}methyl)pyridin-2-yl trifluoromethanesulfonate], for which the IC50 came out at 5.6 nM.
As to `Cc1ccc(C2=CCN(c3cnn(Cc4ccc(C(F)(F)F)s4)c(=O)n3)C[C@@H]2O)cc1F` [Synthesis Example 52, (R)-5-[4-(3-Fluoro-4-methylphenyl)-5-hydroxy-5,6-dihydropyridin-1(2H)-yl]-2-{[5-(trifluoromethyl)thiophen-2-yl]methyl}-1,2,4-triazin-3(2H)-one], the IC50 amounted to 7.9 nM.
The value for `O=c1nc(N2CCc3cc(C(F)(F)F)ccc3C2)cnn1Cc1ccc(C(F)(F)F)s1` [Synthesis Example 53, 5-[6-(trifluoromethyl)-3,4-dihydroisoquinolin-2(1H)-yl]-2-{[5-(trifluoromethyl)thiophen-2-yl]methyl}-1,2,4-triazin-3(2H)-one] was 170 nM; that for `O=c1nc(N2CC=C(c3ccc(F)c(Cl)c3)[C@@H](O)C2)cnn1Cc1ccc(C(F)(F)F)s1` [Synthesis Example 54, (R)-5-[4-(3-Chloro-4-fluorophenyl)-5-hydroxy-5,6-dihydropyridin-1(2H)-yl]-2-{[5-(trifluoromethyl)thiophen-2-yl]methyl}-1,2,4-triazin-3(2H)-one] was 3.1 nM.
The value for `O=c1nc(N2Cc3ccc(OC(F)F)cc3C(O)C2)cnn1Cc1cnc(C(F)(F)F)s1` (stereo not shown) [Synthesis Example 55] was 1000 nM.
